{
  "source": "ChEMBL document CHEMBL1123324",
  "about": "“Basically substituted ellipticine analogues as potential antitumor agents” (1986)",
  "key": {"[1]": {"tested_on": "L1210", "test": "Inhibitory effect against L1210 leukemia in tissue culture; Inactive", "type": "functional, cell-based", "conditions": "Mus musculus"}, "[2]": {"tested_on": "L1210", "test": "Inhibitory effect against L1210 leukemia in tissue culture", "type": "functional", "conditions": "Mus musculus, read-out: ID50 (the source's name)"}, "[3]": {"tested_on": "HCT-8", "test": "Inhibitory effect against HCT8 Human colon adenocarcinoma", "type": "functional", "conditions": "read-out: ID50 (the source's name)"}, "[4]": {"tested_on": "Nucleic Acid", "test": "Concentration at which the fluorescence of an ethidium-DNA complex was reduced by 50%", "type": "nucleic-acid assay"}, "[5]": {"tested_on": "HCT-8", "test": "Inhibitory effect against HCT8 Human colon adenocarcinoma; inactive", "type": "functional, cell-based"}},
  "note": "Activity calls are given as the source filed them. No cut-off for these calls is given here.",
  "data": [
    {"smiles": "CCN(CC)C(=O)Cn1c2ccccc2c2c(C)c3cnccc3c(C)c21", "values": [
      {"measurement": "ID50", "setting": "[1]", "value": "inactive"}
    ]},
    {"smiles": "Cc1c2cnccc2c(C)c2c1c1ccccc1n2CCCN(C)C", "values": [
      {"measurement": "IC50", "setting": "[2]", "value": 110, "unit": "nM"},
      {"measurement": "IC50", "setting": "[3]", "value": 390, "unit": "nM"}
    ]},
    {"smiles": "CCN(CC)CC[n+]1ccc2c(C)c3[nH]c4ccccc4c3c(C)c2c1", "values": [
      {"measurement": "IC50", "setting": "[2]", "value": 41, "unit": "nM"},
      {"measurement": "IC50", "setting": "[3]", "value": 500, "unit": "nM"},
      {"measurement": "C50", "setting": "[4]", "value": 159, "unit": "nM"}
    ]},
    {"smiles": "Cc1c2cc[n+](C)cc2c(C)c2c1[nH]c1ccccc12", "values": [
      {"measurement": "ID50", "setting": "[5]", "value": "inactive"},
      {"measurement": "IC50", "setting": "[2]", "value": 600, "unit": "nM"}
    ]},
    {"smiles": "Cc1c2ccncc2c(C)c2c1[nH]c1ccccc12", "note": "[ELLIPTECINE]", "values": [
      {"measurement": "IC50", "setting": "[2]", "value": 100, "unit": "nM"},
      {"measurement": "IC50", "setting": "[3]", "value": 260, "unit": "nM"},
      {"measurement": "C50", "setting": "[4]", "value": 1040, "unit": "nM"}
    ]},
    {"smiles": "Cc1c2cnccc2c(C)c2c1c1ccccc1n2CCN1CCOCC1", "values": [
      {"measurement": "IC50", "setting": "[2]", "value": 320, "unit": "nM"},
      {"measurement": "IC50", "setting": "[3]", "value": 100, "unit": "nM"},
      {"measurement": "C50", "setting": "[4]", "value": 440, "unit": "nM"}
    ]},
    {"smiles": "Cc1c2cnccc2c(C)c2c1c1ccccc1n2C", "values": [
      {"measurement": "IC50", "setting": "[2]", "value": 430, "unit": "nM"},
      {"measurement": "C50", "setting": "[4]", "value": 454, "unit": "nM"}
    ]},
    {"smiles": "Cc1c2cnccc2c(C)c2c1c1ccccc1n2CCN1CCCCC1", "values": [
      {"measurement": "IC50", "setting": "[2]", "value": 170, "unit": "nM"},
      {"measurement": "IC50", "setting": "[3]", "value": 82, "unit": "nM"},
      {"measurement": "C50", "setting": "[4]", "value": 122, "unit": "nM"}
    ]},
    {"smiles": "CCN(CC)CCn1c2ccccc2c2c(C)c3cnccc3c(C)c21", "values": [
      {"measurement": "IC50", "setting": "[2]", "value": 190, "unit": "nM"},
      {"measurement": "IC50", "setting": "[3]", "value": 80, "unit": "nM"},
      {"measurement": "C50", "setting": "[4]", "value": 106, "unit": "nM"}
    ]}
  ]
}
